Assay results reported in PMC6757289, “Design and Characterization of SGK3-PROTAC1, an Isoform Specific SGK3 Kinase PROTAC Degrader” (ACS Chemical Biology, 2019).
Where two headings read alike, the source gives them in different places.

Key:
Test in all cases: kinase profiling panel
Assay type in all cases: biochemical
DDR2 = biological target: T1, DDR2 (Homo sapiens, UniProt Q16832); conditions: read-out: % Activity Remaining
T1 sequence (Q16832 22-855): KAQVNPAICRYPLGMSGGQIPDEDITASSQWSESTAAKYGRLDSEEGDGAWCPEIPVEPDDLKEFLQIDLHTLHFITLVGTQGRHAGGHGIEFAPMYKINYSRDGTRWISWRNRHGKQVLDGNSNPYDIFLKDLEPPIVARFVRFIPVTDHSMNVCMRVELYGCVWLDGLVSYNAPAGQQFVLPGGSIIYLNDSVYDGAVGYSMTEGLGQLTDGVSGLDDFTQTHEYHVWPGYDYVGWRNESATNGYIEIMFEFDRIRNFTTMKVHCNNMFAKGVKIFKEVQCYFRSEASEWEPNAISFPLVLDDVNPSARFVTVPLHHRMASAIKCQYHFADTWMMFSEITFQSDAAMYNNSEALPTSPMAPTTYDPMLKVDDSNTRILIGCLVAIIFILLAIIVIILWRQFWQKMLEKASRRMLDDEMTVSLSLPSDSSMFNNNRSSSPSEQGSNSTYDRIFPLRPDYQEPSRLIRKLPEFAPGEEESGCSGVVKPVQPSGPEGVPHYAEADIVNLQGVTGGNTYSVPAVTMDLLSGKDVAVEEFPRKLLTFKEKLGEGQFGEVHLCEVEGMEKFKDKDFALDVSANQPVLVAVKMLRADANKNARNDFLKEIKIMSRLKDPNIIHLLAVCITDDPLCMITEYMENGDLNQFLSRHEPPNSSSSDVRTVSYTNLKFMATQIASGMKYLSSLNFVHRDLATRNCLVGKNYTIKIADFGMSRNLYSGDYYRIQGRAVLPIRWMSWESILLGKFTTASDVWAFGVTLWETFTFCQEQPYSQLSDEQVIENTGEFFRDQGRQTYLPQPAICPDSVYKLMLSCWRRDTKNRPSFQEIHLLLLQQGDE
Excerpt: (§1) Protein kinase profiling against a Dundee panel of 140 protein kinases was undertaken at the International Centre for Protein Kinase Profiling. The result for each kinase was presented as a mean kinase activity of the reaction taken in triplicate relative to a control sample treated with DMSO. Assay conditions and abbreviations are available at http://www.kinase-screen.mrc.ac.uk.

PIM2 = PIM2 (Homo sapiens, UniProt Q9P1W9); conditions: read-out: % Activity Remaining
Excerpt: as §1

PKD1 = biological target: T2, PKD1 (Homo sapiens, UniProt Q15139); conditions: read-out: % Activity Remaining
T2 sequence (Q15139 1-912): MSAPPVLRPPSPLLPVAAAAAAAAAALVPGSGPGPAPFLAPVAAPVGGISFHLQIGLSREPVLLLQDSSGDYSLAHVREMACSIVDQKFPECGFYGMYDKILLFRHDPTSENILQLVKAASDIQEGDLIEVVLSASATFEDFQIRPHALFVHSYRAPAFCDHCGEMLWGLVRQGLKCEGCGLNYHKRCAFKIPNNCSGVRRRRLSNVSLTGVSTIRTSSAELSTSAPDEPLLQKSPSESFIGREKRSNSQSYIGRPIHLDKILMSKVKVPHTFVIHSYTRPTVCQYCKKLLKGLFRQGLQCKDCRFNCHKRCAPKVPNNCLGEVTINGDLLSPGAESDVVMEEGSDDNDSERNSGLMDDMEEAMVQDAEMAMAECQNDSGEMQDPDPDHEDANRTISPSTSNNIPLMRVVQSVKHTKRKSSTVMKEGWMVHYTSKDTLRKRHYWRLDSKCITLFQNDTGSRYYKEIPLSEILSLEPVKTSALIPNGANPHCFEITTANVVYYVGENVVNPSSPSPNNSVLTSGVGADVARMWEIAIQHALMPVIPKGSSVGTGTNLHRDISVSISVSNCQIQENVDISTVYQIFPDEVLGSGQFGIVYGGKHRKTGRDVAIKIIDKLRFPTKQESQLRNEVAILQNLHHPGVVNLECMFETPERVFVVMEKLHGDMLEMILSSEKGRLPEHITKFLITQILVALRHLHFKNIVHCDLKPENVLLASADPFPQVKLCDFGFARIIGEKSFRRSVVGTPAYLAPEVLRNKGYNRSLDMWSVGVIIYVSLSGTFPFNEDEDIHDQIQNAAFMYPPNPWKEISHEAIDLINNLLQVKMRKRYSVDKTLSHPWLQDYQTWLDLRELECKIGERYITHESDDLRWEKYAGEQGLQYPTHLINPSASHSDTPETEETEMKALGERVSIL
Excerpt: as §1

EPH-A4 = EPH-A4 (Homo sapiens, UniProt P54764); conditions: read-out: % Activity Remaining
Excerpt: as §1

DYRK2 = biological target: T3, DYRK2 (Homo sapiens, UniProt Q92630); conditions: read-out: % Activity Remaining
T3 sequence (Q92630 1-601): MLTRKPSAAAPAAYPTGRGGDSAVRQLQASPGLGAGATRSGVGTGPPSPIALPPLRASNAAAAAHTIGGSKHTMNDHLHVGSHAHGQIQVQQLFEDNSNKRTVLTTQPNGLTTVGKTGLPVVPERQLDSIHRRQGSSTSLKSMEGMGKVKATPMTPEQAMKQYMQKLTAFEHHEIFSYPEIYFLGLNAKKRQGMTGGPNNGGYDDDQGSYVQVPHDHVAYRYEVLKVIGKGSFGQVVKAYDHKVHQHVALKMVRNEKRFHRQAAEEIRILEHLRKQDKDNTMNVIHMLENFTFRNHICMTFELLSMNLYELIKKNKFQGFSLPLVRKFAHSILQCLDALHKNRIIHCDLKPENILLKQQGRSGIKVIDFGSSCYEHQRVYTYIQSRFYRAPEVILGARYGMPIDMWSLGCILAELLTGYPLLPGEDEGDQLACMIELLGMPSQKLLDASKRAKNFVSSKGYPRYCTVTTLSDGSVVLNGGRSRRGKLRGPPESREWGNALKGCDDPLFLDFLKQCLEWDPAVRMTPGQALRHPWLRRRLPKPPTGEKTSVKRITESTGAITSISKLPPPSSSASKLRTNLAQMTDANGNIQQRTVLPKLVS
Excerpt: as §1

PHK = conditions: 1 µM
Excerpt: as §1

PAK2 = PAK2 (Homo sapiens, UniProt Q13177); conditions: read-out: % Activity Remaining
Excerpt: as §1

CDK2-Cyclin A = CDK2-Cyclin A (Homo sapiens, UniProt P24941); conditions: read-out: % Activity Remaining
Excerpt: as §1

PIM3 = PIM3 (Homo sapiens, UniProt Q86V86); conditions: read-out: % Activity Remaining
Excerpt: as §1

Chain of EPH-A4 (P54764 20-986): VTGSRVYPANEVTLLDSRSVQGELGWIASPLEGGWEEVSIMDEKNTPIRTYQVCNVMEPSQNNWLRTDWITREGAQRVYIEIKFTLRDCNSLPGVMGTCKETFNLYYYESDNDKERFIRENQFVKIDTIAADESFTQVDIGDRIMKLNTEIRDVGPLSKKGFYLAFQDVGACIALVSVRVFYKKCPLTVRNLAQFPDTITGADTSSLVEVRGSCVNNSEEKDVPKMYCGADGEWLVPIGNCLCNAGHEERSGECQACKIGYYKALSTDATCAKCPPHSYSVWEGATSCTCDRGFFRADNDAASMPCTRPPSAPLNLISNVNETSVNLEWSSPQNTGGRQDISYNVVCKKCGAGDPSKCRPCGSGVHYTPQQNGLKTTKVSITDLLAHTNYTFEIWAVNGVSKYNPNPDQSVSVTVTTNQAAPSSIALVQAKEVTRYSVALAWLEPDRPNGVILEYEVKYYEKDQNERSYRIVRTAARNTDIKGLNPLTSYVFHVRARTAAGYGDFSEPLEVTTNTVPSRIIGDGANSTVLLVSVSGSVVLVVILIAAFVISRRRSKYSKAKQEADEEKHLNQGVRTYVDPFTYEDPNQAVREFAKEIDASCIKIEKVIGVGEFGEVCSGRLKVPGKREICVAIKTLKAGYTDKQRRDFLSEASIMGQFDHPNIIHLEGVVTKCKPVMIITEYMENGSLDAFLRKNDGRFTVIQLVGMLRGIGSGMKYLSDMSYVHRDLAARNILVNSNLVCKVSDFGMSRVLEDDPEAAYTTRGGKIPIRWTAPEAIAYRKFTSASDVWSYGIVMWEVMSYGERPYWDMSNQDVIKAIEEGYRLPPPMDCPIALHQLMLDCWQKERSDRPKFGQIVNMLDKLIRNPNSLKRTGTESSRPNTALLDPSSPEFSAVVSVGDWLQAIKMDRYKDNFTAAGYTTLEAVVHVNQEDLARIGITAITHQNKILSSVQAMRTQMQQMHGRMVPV
Chain of PAK2 (Q13177 whole entry): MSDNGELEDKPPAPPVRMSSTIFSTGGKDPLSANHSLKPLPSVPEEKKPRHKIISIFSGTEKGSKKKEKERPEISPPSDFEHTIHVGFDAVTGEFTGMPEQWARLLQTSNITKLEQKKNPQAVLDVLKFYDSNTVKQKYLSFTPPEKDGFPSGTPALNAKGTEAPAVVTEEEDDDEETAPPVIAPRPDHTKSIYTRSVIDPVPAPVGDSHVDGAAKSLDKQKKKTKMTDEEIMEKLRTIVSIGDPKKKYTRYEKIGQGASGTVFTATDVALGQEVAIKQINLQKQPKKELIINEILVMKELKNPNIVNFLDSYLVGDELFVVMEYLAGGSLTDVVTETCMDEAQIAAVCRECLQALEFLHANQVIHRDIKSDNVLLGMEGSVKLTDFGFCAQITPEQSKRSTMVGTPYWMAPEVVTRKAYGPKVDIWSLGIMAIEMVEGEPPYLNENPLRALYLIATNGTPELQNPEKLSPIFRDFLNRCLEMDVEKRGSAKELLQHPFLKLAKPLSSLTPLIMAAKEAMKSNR
Chain of PIM2 (Q9P1W9 whole entry): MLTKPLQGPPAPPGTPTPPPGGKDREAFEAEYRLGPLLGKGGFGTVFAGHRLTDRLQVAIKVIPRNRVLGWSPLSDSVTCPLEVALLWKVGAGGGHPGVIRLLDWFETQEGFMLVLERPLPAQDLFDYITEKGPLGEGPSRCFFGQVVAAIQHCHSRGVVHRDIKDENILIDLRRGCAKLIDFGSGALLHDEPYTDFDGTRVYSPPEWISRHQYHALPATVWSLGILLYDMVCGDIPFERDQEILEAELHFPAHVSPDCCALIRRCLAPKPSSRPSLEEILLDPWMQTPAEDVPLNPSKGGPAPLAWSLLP

SMILES	remaining activity at 1 µM (DDR2; 1 µM) [%]	remaining activity at 1 µM (PIM2; 1 µM) [%]	remaining activity at 1 µM (PKD1; 1 µM) [%]	remaining activity at 1 µM (EPH-A4; 1 µM) [%]	remaining activity at 1 µM (DYRK2; 1 µM) [%]	% Activity Remaining (PHK) [%]	remaining activity at 1 µM (PAK2; 1 µM) [%]	remaining activity at 1 µM (CDK2-Cyclin A; 1 µM) [%]	remaining activity at 1 µM (PIM3; 1 µM) [%]	remaining activity at 1 µM (DDR2) [%]	remaining activity at 1 µM (PIM2) [%]	remaining activity at 1 µM (PKD1) [%]	remaining activity at 1 µM (EPH-A4) [%]	remaining activity at 1 µM (DYRK2) [%]	remaining activity at 1 µM (PAK2) [%]	remaining activity at 1 µM (CDK2-Cyclin A) [%]	remaining activity at 1 µM (PIM3) [%]
Cc1ccc(F)c(S(=O)(=O)Nc2ccc(-c3nc(OC[C@H]4CN(CCCCCCOCCOCCOCC(=O)N[C@H](C(=O)N5C[C@H](O)C[C@H]5C(=O)NCc5ccc(-c6scnc6C)cc5)C(C)(C)C)CCO4)c4cn[nH]c4n3)cc2)c1 [SGK3-PROTAC1]	114	98	94	106	102	113	116	101	88								
COc1ccc(Cl)c(S(=O)(=O)Nc2ccc(-c3nc(OC[C@H]4CNCCO4)c4c(C)n[nH]c4n3)cc2)c1 [290-R, reference compound]						97				80	105	15	95	100	90	94	105
Cc1ccc(F)c(S(=O)(=O)Nc2ccc(-c3nc(OC[C@H]4CN(CCCCCCOCCOCCOCC(=O)N[C@H](C(=O)N5C[C@@H](O)C[C@H]5C(=O)NCc5ccc(-c6scnc6C)cc5)C(C)(C)C)CCO4)c4cn[nH]c4n3)cc2)c1 [cisSGK3-PROTAC1]	134	105	92	89	97	122	99	103	89								
Cc1ccc(F)c(S(=O)(=O)Nc2ccc(-c3nc(OC[C@H]4CNCCO4)c4cn[nH]c4n3)cc2)c1 [308-R, reference compound]						83				106	127	37	53	74	53	61	76
